1 compound from publication PMC12512194, “The Allosteric Regulator Inositol Phosphate Dramatically Affects the Efficacy and Selectivity of Inhibitors for Different HDAC Complexes” (Journal of the American Chemical Society, 2025) can be followed below.

One assay deals with T1, HDAC1 (Homo sapiens, UniProt Q13547).
T1 construct: endogenous in cells; host or cells: HCT116
The assay can be described thus: HDAC1 protein level / degradation by immunoblot in HCT116 cells. It is filed as cell-based. To be noted: even at 10 μM. On the procedure: (§1) complex and inhibitor were then incubated at 20 °C, 100 RPM for 2 hours . After incubation, 10 μL of the Boc -(Ac)Lys -AMC substrate, dissolved in HDAC assay buffer, was added to each well. The plate was incubate d at 30 °C, 100 RPM for 1 hour, followed by addition of 50 μL of a developer buffer (50 mM Tris pH 7.5, 100 mM NaCl, 10 mg/mL trypsin) to quench the reaction. The reaction was allowed to develop for 10 minutes at 30 °C, 100 RPM. Fluorescence intensity was determined with the Victor […]
IC50 values were calculated using GraphPad
Prism 7 software by non-linear regression, log (inhibitor) vs. response – variable slope (four […]
(§2) 6. Culture of HCT116 cells
HCT116 cells were maintained on 100 mm or 60 mm culture dishes in Dulbecco's Modified Eagle Medium (Gibco) supplemented with 10% fetal bovine serum (Sigma) and 1X glutamine/penicillin/streptomycin (Gibco) . Once the cells reached ~90% confluency, they were washed with warm PBS (Sigma), trypsinised using TrypLETM Express solution (Gibco) and put into an incubator at 37°C for 5 minutes. Once dissociated, cell media was used to dilute the cells into required
For orientation: Immunoblotting shows a protein as a band on a membrane.

The target in the next assay is T2, HDAC3 (Homo sapiens, UniProt O15379).
T2 construct: endogenous in cells; host or cells: HCT116
In words: HDAC3 protein level / degradation by immunoblot in HCT116 cells. It is filed as cell-based. The settings on record: even at 10 μM. On the procedure: as §1, with “Victor X5 plate reader (Perkin Elmer, λex = 355 nm, λem = 460 nm). IC50 values were calculated using GraphPad Prism 7 software by non-linear regression, log (inhibitor) vs. response – variable slope (four” for “Victor”
as §2
HCT116 cells were maintained on 100 mm or 60 mm culture dishes in Dulbecco's Modified Eagle Medium (Gibco) supplemented with 10% fetal bovine serum (Sigma) and 1X glutamine/penicillin/streptomycin (Gibco) . Once the cells reached ~90% confluency, they were washed with warm PBS (Sigma), trypsinised using TrypLETM Express solution (Gibco) and put into an incubator at 37°C for 5 minutes. […]
mins, 4 °C) and the supernatant was collected. Protein concentrations were quantified via Bradford Assay using Protein Assay Dye Reagent Concentrate (BIO -RAD). […]

T1 sequence (Q13547 whole entry): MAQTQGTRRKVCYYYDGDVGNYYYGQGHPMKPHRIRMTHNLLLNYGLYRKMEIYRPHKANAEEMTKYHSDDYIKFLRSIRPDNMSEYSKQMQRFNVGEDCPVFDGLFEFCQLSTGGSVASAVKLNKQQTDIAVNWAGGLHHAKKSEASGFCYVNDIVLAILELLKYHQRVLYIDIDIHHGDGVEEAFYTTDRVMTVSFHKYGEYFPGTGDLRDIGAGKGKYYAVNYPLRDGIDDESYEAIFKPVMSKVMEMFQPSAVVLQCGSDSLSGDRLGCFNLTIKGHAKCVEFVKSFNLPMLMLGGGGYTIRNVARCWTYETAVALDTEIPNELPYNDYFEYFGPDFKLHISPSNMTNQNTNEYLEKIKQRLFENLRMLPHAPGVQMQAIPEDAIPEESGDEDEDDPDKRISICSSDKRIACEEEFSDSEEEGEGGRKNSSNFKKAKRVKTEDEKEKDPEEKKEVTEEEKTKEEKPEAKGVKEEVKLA
T2 sequence (O15379 whole entry): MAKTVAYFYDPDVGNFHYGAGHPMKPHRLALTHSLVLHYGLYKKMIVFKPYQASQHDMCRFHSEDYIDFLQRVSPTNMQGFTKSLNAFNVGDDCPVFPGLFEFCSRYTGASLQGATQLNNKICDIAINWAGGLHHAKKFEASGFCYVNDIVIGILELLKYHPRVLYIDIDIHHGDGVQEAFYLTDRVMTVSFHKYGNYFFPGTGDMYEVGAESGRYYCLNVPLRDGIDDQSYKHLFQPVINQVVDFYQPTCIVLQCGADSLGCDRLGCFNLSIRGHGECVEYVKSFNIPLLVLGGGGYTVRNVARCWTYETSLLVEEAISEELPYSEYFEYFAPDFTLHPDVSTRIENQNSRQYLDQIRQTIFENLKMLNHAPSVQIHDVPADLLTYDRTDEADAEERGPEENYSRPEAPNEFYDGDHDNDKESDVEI
T2 sequence (Q9Y618 whole entry partner): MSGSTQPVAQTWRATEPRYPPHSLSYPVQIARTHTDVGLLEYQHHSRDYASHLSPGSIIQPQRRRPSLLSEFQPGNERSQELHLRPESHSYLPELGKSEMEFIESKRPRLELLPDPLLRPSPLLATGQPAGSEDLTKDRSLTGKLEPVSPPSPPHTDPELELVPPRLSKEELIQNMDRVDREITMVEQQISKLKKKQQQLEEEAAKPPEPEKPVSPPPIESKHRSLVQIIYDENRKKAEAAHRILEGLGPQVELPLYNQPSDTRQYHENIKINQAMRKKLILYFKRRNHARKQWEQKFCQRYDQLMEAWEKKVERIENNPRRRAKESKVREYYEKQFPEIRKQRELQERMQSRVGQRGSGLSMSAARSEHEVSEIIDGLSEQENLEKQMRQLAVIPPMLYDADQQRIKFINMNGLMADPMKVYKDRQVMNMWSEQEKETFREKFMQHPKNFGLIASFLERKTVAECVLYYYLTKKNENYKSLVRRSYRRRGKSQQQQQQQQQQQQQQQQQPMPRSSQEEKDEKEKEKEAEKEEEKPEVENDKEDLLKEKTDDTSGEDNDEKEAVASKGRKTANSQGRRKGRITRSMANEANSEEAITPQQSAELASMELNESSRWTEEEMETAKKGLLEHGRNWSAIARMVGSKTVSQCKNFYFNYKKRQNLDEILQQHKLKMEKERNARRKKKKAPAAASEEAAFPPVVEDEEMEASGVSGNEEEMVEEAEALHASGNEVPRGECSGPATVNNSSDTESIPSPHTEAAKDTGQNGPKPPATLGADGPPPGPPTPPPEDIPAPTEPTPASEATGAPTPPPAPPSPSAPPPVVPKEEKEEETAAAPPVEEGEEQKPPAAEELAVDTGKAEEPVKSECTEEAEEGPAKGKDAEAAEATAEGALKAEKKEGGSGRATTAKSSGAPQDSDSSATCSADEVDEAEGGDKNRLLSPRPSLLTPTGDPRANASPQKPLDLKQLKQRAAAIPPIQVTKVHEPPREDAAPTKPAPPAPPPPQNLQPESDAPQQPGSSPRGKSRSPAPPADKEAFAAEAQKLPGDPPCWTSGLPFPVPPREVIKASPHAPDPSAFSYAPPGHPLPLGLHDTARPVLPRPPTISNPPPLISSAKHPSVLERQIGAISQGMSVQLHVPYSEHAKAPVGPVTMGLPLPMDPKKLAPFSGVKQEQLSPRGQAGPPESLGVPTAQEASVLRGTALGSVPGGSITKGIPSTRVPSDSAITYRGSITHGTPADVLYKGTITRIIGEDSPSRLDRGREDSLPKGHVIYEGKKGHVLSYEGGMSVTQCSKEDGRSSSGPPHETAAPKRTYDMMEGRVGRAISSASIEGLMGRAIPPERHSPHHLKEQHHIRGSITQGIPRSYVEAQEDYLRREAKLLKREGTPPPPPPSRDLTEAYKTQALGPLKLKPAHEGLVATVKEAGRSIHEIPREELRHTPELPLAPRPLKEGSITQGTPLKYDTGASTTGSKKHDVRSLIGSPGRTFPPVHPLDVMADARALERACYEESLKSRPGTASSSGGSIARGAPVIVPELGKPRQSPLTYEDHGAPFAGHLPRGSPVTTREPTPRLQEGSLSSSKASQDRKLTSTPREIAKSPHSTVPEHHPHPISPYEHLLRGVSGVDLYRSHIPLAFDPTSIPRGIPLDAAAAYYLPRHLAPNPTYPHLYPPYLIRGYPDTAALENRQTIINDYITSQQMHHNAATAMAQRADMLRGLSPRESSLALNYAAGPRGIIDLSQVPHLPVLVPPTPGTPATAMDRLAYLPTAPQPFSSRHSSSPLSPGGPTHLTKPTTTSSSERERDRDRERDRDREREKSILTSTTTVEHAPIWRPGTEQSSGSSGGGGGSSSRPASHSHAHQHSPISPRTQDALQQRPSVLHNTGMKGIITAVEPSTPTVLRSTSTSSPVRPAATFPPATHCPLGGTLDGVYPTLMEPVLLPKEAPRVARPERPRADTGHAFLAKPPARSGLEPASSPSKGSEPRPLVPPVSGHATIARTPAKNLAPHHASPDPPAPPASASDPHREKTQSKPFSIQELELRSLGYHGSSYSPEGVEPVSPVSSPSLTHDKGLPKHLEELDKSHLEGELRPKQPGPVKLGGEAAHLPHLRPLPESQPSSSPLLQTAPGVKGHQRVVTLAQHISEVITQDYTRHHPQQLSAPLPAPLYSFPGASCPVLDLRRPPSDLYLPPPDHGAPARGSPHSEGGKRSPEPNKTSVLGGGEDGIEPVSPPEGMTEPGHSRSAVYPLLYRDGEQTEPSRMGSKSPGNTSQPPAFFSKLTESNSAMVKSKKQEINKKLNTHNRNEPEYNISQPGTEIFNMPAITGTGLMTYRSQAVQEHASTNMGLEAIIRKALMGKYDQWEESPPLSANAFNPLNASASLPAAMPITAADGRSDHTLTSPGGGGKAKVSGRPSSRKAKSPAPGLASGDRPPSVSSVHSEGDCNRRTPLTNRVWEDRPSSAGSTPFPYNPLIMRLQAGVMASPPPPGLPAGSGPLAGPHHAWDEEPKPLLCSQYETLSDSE

On to `Cc1ncsc1-c1ccc(CNC(=O)[C@@H]2C[C@@H](O)CN2C(=O)[C@@H](NC(=O)CCCCCCCCCC(=O)N2CCN(c3cnc(C(=O)Nc4cc(-c5ccncc5)ccc4N)cn3)CC2)C(C)(C)C)cc1` [JPS062], for which the “degradation of HDAC1” value at HDAC1 was “no degradation”. Further, on HDAC3, the “degradation of HDAC3” value was “no degradation”.
